For this assay, the target named is T1, mTOR protein (Homo sapiens, UniProt P42345).
T1 construct: mTOR protein was isolated from HeLa cell cytoplasmic extract by immunoprecipitation; endogenous in cells; host or cells: HeLa cell cytoplasmic extract (immunoprecipitation)
Description: mTOR enzyme activity assay (immunoprecipitated mTOR, recombinant PHAS-1 as substrate). The format is biochemical. Particulars: mTOR isolated from HeLa cell cytoplasmic extract by immunoprecipitation; recombinant PHAS-1 substrate.

What is called IC50 is the concentration that gives 50% inhibition.

Description: For mTOR enzyme activity assays, mTOR protein was isolated from HeLa cell cytoplasmic extract by immunoprecipitation, and activity determined essentially as described previously using recombinant PHAS-1 as a substrate (ref. 21).

As for `C[C@H]1CCCCN1c1nc(N2CCCOCC2)c2cccnc2n1` [4ab], the 50% inhibitory concentration (IC50) is under 1500 nM.

With `C[C@@H]1CN(c2nc(N3CCOC[C@@H]3C)c3cccnc3n2)C[C@H](C)O1` [4af], the IC50 was under 1500 nM.

For `C[C@H]1COCCN1c1nc(N2CCOC(c3ccccc3)C2)nc2ncccc12` (stereo partly drawn) [4ag], the IC50 is under 1500 nM.

`C[C@H]1COCCN1c1nc(N2CCOCC2c2ccccc2)nc2ncccc12` (stereo partly drawn) [4ah]: the half-maximal inhibitory concentration (IC50) was under 1500 nM.

For the compound `C[C@@H]1CN(c2nc(N3CCOCC3)c3cccnc3n2)C[C@H](C)O1` [4c], the IC50 was under 1500 nM.

On to `NC(=O)C1CCN(c2nc(N3CCOCC3)c3ccncc3n2)CC1` [4d], for which the 50% inhibitory concentration (IC50) was under 1500 nM.

With `FC(F)(F)C1CCCN(c2nc(N3CCOCC3)c3cccnc3n2)C1` (stereo not drawn) [4h], the IC50 is under 1500 nM.

For the compound `CCC1CCCCN1c1nc(N2CCOCC2)c2cccnc2n1` (stereo not drawn) [4n], the IC50 is under 1500 nM.

In the case of `OCCC1CCCCN1c1nc(N2CCOCC2)c2cccnc2n1` (stereo not drawn) [4o], the IC50 is under 1500 nM.

Take `c1cnc2nc(N3CCCCC3)nc(N3CCOCC3)c2c1` [4y]: the IC50 was under 1500 nM.

`C[C@H]1COCCN1c1nc(N2CCOC(CN3C(=O)c4cccc(N)c4C3=O)C2)nc2ncccc12` (stereo partly drawn) [5g]: the half-inhibitory concentration (IC50) is under 1500 nM.

On to `C[C@H]1COCCN1c1nc(N2CCOC(Cn3c(=O)oc4ccccc43)C2)nc2ncccc12` (stereo partly drawn) [5h], for which the IC50 was under 1500 nM.

Take `C[C@H]1COCCN1c1nc(N2CCOC(CNC(=O)c3cccs3)C2)nc2ncccc12` (stereo partly drawn) [5k]: the IC50 was under 1500 nM.

With `COC(=O)C(=O)NCC1CN(c2nc(N3CCOC[C@@H]3C)c3cccnc3n2)CCO1` (stereo partly drawn) [5m], the IC50 is under 1500 nM.

Regarding `C[C@H]1COCCN1c1nc(N2CCOC(COc3nccc4ccccc34)C2)nc2ncccc12` (stereo partly drawn) [5z], the half-maximal inhibitory concentration (IC50) was under 1500 nM.

Source of the values: patent publication US20060199803A1, “Compounds” (Kudos Pharmaceuticals Ltd, priority 2005, published 2006).
